Test results: patent US10716807B2, “Method of treating relapsing-remitting multiple sclerosis using arsenic trioxide” (Medsenic, priority 2017, dated 2020)
Entries after “also recorded” stand apart in the source; their conditions may differ.

Assays:
MOG35-55-induced EAE = assay: MOG35-55-induced prophylactic/therapeutic EAE model; type: in vivo, C57BL/6 mice; settings: for EAE disease severity compared to the vehicle group / EAE onset compared to the vehicle group: started 7 days before EAE induction
Protocol: The study objective was to evaluate the effects of arsenic trioxide (1 mg/ml), administered i.v., QD, starting 7 days before EAE induction, on EAE development in the MOG35-55-induced prophylactic/therapeutic EAE model, known as the more robust and direct animal model to trigger and observe the autoimmune cascade involving the central nervous system and ensuing demyelination.
EAE was induced by MOG35-55/CFA immunization and pertussis toxin injection in C57BL/6 mice.
There were 2 experimental groups with 12 mice per group. Mice were treated prophylactically.
The study used a total of 24 female C57BL/6 mice (Taconic Farms, 10 weeks old).
EAE was induced in all mice as follows:
Day 0, Hour 0—Immunization with MOG35-55/CFA
Day 0, Hour 2—Injection of pertussis toxin
Day 1, Hour 0—2nd injection of pertussis toxin (24 hours after initial immunization)
Mice were injected subcutaneously at two sites in the back with the emulsion component (containing MOG35-55) of Hooke Kit™ […] Emulsion PTX, catalog number EK-2110 (Hooke Laboratories, Lawrence Mass.). One site of injection was in the area of upper back, approximately 1 cm caudal of the neck line. The second site was in the area of lower back, approximately 2 cm cranial of the base of the tail. The injection volume was 0.1 mL at each site.
Within 2 hours of the injection of emulsion, and then again 24 hours after the injection of emulsion, the pertussis toxin component of the kit was administered intraperitoneally. The volume of each injection was 0.1 mL.
To optimize disease severity for this particular study, the pertussis toxin was administered at 165 ng/dose for the first injection and 154 ng/dose for the second injection.
There were 2 groups of 12 mice each.
Mice were assigned to groups 7 days before immunization (Day −7), balanced to achieve similar weight at the start of the study.
Treatment was according to Table 1 below.
Dosing of all mice was at the same time (+/−1 hour) on each day.
Dosing of all mice started on Day −7 (7 days before EAE induction) and continued until Day 27.
Group 2 was dosed at 2 mg/kg from Day −7 to Day −1, and at 3 mg/kg until Day 27.
Mice were scored for EAE and weighed until Day 35, the last day of the study.
Readouts were EAE scores and body weight at the end of the study.
Mice were scored daily from Day 7 after immunization until the end of the study, and body weight was measured three times/week (Monday, Wednesday and Friday), starting on Day −7.
Scoring was performed blind, by a person unaware of both treatment and of previous scores for each mouse.
EAE was scored on scale 0 to 5: • 0 No obvious changes in motor functions of the mouse in comparison to non-immunized mice. • When picked up by the tail, the tail has tension and is erect. Hind legs are usually spread apart. When the mouse is walking, there is no gait or head tilting. • 1 Limp tail. • When the mouse is picked up by the tail, instead of being erect, the whole tail drapes over finger. • 2 Limp tail and weakness of hind legs. • When mouse is picked up by tail, legs are not spread apart, but held closer together. When the mouse is observed walking, it has a clearly apparent wobbly walk. • 3 Limp tail and complete paralysis of hind legs (most common). • OR • Limp tail with paralysis of one front and one hind leg. • OR • ALL of: • Severe head tilting, • Walking only along the edges of the cage, • Pushing against the cage wall, • Spinning when picked up by the tail. • 4 Limp tail, complete hind leg and partial front leg paralysis. • Mouse is minimally moving around the cage but appears alert and feeding. • Usually, euthanasia is recommended after the mouse scores level 4 for 2 days. When the mouse is euthanized because of severe paralysis, score of 5 is entered for that mouse for the rest of the experiment. • 5 Complete hind and complete front leg paralysis, no movement around the cage. • OR • Mouse is spontaneously rolling in the cage. • OR • Mouse is found dead due to paralysis. […]

IL-6 = assay: Cytokine production in spleen cell cultures after MOG35-55/CFA immunization (cytokine bead assay); type: in vivo, mice; settings: spleen cells collected 11 days after immunization, cultured 72 hours with MOG35-55 (0, 0.7, 2.2, 6.7 and 20.0 μg/mL); treatment from Day -16
Protocol: The objective of this study was to determine the effects of arsenic trioxide on cytokine production by T lymphocytes from draining lymph nodes and spleen after immunization with MOG35-55/CFA.
There were 2 experimental groups with 6 mice/group.
Treatment started on Day −16.
Mice were immunized with MOG35-55/CFA on Day 0.
Eleven days after immunization, mice were euthanized, spleens and lymph nodes collected and cell suspensions prepared. Cell suspensions were cultured for 3 days in the presence of multiple concentrations of MOG35-55. The culture supernatants were collected at the end of this 3-day culture period. The concentrations of 7 cytokines (IL-2, IL-4, IL-6, IL-10, IL-17A, TNF, and IFN-γ) were determined in the culture supernatants using Th1/Th2/Th17 cytokine bead assay (CBA) kit from Becton Dickinson.

[1] = 3 mg/kg, i.v., QD, listed as Arsenic trioxide
[2] = to Day 28 (end of treatment), 3 mg/kg, i.v., QD

## arsenic trioxide
MOG35-55-induced EAE; 3 mg/kg, i.v., QD
  Body weight compared to the vehicle treated controls: higher body weight
  EAE disease severity compared to the vehicle group: overall severity was lower; also recorded: reducing disease severity
  EAE onset compared to the vehicle group: disease onset was postponed; also recorded: efficacious at postponing EAE onset
MOG35-55-induced EAE; [1]
  EAE disease severity compared to the vehicle group: reducing disease severity
  EAE onset compared to the vehicle group: efficacious at postponing EAE onset
MOG35-55-induced EAE; 7 days after the treatment was stopped (Day 35)
  Efficacy after the treatment was stopped: efficacy was maintained 7 days after the treatment was stopped
MOG35-55-induced EAE; Day 27, 3 mg/kg, i.v., QD
  Day 27 % body weight +/- SD: 97.3 +/− 5.1%
MOG35-55-induced EAE; Day 35 (end of study), 3 mg/kg, i.v., QD
  End % body weight +/- SD: 93.2 +/− 6.4%
MOG35-55-induced EAE; group of 12 mice, 3 mg/kg, i.v., QD, death not from EAE nor from i.v. dosing complications
  Deaths in group: One mouse died
MOG35-55-induced EAE; to Day 28 (end of treatment), 2 mg/kg Day -7 to -1, then 3 mg/kg to Day 27, i.v., QD
  EAE incidence (%): 100%
MOG35-55-induced EAE; [2]
  Mean day of onset +/- SEM (sick mice): 17.5 ± 1.1 days
  Median day of onset (all mice): 17.0 days
MOG35-55-induced EAE; to Day 28 (end of treatment), EAE scale 0 to 5, 3 mg/kg, i.v., QD
  MMS +/- SD (mean maximum score): 3.41 +/− 0.30
IL-6
  IL-6 concentration in spleen cell cultures: significant reduction of IL-6 concentration
